Reference: patent publication US20090252703A1, “Use of alcohol co-solvents to improve pegylation reaction yields” (priority 2006, published 2009)

Assay: solubility of CGRP peptides in aqueous conjugation buffer
Assay type: physicochemical
Conditions: aqueous conjugation buffers used for coupling vehicle to the peptide
Text: Co-solvent mediated conjugation of vehicle to CGRP peptide antagonists.

| SMILES | solubility in aqueous buffer medium (in words) |
| --- | --- |
| CC(=O)N[C@@H](Cc1c[nH]c2ccccc12)C(=O)N[C@H](C(=O)N[C@H](C(=O)N[C@@H](Cc1cnc[nH]1)C(=O)N[C@@H](CCCNC(N)=O)C(=O)N[C@@H](CC(C)C)C(=O)N[C@@H](C)C(=O)NCC(=O)N[C@@H](CC(C)C)C(=O)N[C@@H](CC(C)C)C(=O)N[C@@H](CO)C(=O)N[C@@H](CCCNC(N)=O)C(=O)N[C@@H](CO)C(=O)NCC(=O)NCC(=O)N[C@H](C(=O)N[C@H](C(=O)N[C@@H](CCCCNC(=N)N)C(=O)N[C@@H](CCCCN)C(=O)N[C@@H](CC(N)=O)C(=O)N[C@@H](Cc1ccccc1)C(=O)N[C@H](C(=O)N1CCC[C@H]1C(=O)N[C@H](C(=O)N[C@@H](CC(=O)O)C(=O)N[C@H](C(=O)NCC(=O)N1C2CCCCC2C[C@H]1C(=O)N[C@@H](Cc1ccccc1)C(=O)N[C@@H](C)C(=O)N[C@@H](Cc1ccccc1)C(N)=O)C(C)C)[C@@H](C)O)C(C)C)C(C)C)C(C)C)[C@@H](C)O)C(C)C (stereo partly drawn) [SEQ ID NO:3] | relatively insoluble |
| CC(=O)N[C@@H](Cc1c[nH]c2ccccc12)C(=O)N[C@H](C(=O)N[C@H](C(=O)N[C@@H](Cc1cnc[nH]1)C(=O)N[C@@H](CCCN=C(N)N)C(=O)N[C@@H](CC(C)C)C(=O)N[C@@H](C)C(=O)NCC(=O)N[C@@H](CC(C)C)C(=O)N[C@@H](CC(C)C)C(=O)N[C@@H](CO)C(=O)N[C@@H](CCCN=C(N)N)C(=O)N[C@@H](CO)C(=O)NCC(=O)NCC(=O)N[C@H](C(=O)N[C@H](C(=O)N[C@@H](CCCN=C(N)N)C(=O)N[C@@H](CCCCN)C(=O)N[C@@H](CC(N)=O)C(=O)N[C@@H](Cc1ccccc1)C(=O)N[C@H](C(=O)N1CCC[C@H]1C(=O)N[C@H](C(=O)N[C@@H](CC(=O)O)C(=O)N[C@H](C(=O)NCC(=O)N1CCC[C@H]1C(=O)N[C@@H](Cc1ccccc1)C(=O)N[C@@H](C)C(=O)N[C@@H](Cc1ccccc1)C(N)=O)C(C)C)[C@@H](C)O)C(C)C)C(C)C)C(C)C)[C@@H](C)O)C(C)C [SEQ ID NO:7] | relatively soluble |
| CC(=O)N[C@@H](Cc1c[nH]c2ccccc12)C(=O)N[C@H](C(=O)N[C@H](C(=O)N[C@@H](Cc1cnc[nH]1)C(=O)N[C@@H](CCCNC(N)=O)C(=O)N[C@@H](CC(C)C)C(=O)N[C@@H](C)C(=O)NCC(=O)N[C@@H](CC(C)C)C(=O)N[C@@H](CC(C)C)C(=O)N[C@@H](CO)C(=O)N[C@@H](CCCNC(N)=O)C(=O)N[C@@H](CO)C(=O)NCC(=O)NCC(=O)N[C@H](C(=O)N[C@H](C(=O)N[C@@H](CCCCNC(=N)N)C(=O)N[C@@H](CCCCN)C(=O)N[C@@H](CC(N)=O)C(=O)N[C@@H](Cc1ccccc1)C(=O)N[C@H](C(=O)N1CCC[C@H]1C(=O)N[C@H](C(=O)N[C@@H](CC(=O)O)C(=O)N[C@H](C(=O)NCC(=O)N1CCC[C@H]1C(=O)N[C@@H](Cc1ccccc1)C(=O)N[C@@H](C)C(=O)N[C@@H](Cc1ccccc1)C(N)=O)C(C)C)[C@@H](C)O)C(C)C)C(C)C)C(C)C)[C@@H](C)O)C(C)C [SEQ ID NO:2] | relatively insoluble |
